Experiments:
Format in all cases: physicochemical
[1] = Solubility and solid form in DMF/water/acetonitrile ternary solvent system; settings: one molar equivalent excess maleic acid
Protocol: The final set of solubility studies were conducted in ternary solvent systems of dimethyl formamide (DMF)/water/acetonitrile (ACN). This system was studied because most of the early success in crystallizing S-[2-[(1-Iminoethyl)amino]ethyl]-2-methyl-L-cysteine maleate salt was found in this solvent mixture. […] Experiments were only conducted for the last four of these compositions at 25° C., but the data was collected for the compositions at 5° C. Supernatant was analyzed after four and nineteen days. Equilibrated solids were also isolated and characterized after nineteen days from most experiments (see Table 5). […] Table 5, lists concentration data in wt % S-[2-[(1-Iminoethyl)amino]ethyl]-2-methyl-L-cysteine from all the experiments at 5 and 25° C. after four and nineteen days of equilibration. […] There is also some temperature dependence for solubility across all the experiments. When the data is analyzed at a fixed ACN content, it seems that the solubility initially decreases before increasing as the DMF content of the system is increased at the expense of water. This trend seems to hold for both 70 and 90% ACN. […] In summary, though this solvent system is complex, it does offer regions of solvent composition conducive to crystallization process design especially for form II.

[2] = physchem
Description: The parent S-[2-[(1-Iminoethyl)amino]ethyl]-2-methyl-L-cysteine molecule has 3 ionizable groups and can exist in 4 ionization states.
At low pH, the molecule exists as a +2 charged free acid, with the carboxylic acid, amine and amidine moieties protonated. This is the ionization state for the dihydrochloride salt.
As the pH is increased, the carboxylic acid group is the first group to deprotonate, and this produces a net charge on the molecule of +1. If the pH increase is generated by addition of sodium hydroxide to S-[2-[(1-Iminoethyl)amino]ethyl]-2-methyl-L-cysteine, the […] is formed. Other bases would make their corresponding salt forms. If the increase in pH is due to removal of chloride ions by anion exchange processing, the product is the monohydrochloride salt with no sodium or other counterions.
A positive charge still resides on the amidine, and a negative charge still resides on the carboxyl group. In contrast, if such material is made by the addition of sodium hydroxide to the dihydrochloride, the resulting product is the monohydrochloro sodium salt, mixed with one equivalent of sodium chloride. The material prepared by the anion exchange resin approach is the free zwitterion.
Further increases in pH lead to deprotonation of the amidine ion (pKa˜12.5). The molecule in this pH range is the free base and acid salt. […]

[3] = Pseudo-titration in water with IRA-400(OH) anion exchange resin, samples assayed by HPLC (Example 3); settings: for pH of slower rise representative of the pK: pseudo-titration in water, not true equilibrium
Protocol: 60 g of Amberlite IRA400 (OH) resin was prewashed with 4.7 percent (by weight) ammonium hydroxide (50 ml of 28 percent ammonium hydroxide, 250 ml deionized water), followed by extensive washing with deionized water. The final conductivity was 6.1 μS.
Samples containing about 0.9 g of S-[2-[(1-Iminoethyl)amino]ethyl]-2-methyl-L-cysteine di-hydrochloride in 142 ml HCl/water solution, were concentrated on a rotary evaporator at 60° C. to an oil. To the oil, diluted to 60 ml with deionized water, was added aliquots of 0.5 g of washed anion exchange resin while stirring. At five minutes after each aliquot of resin was added, the solution pH was measured and a sample removed through a syringe filter. A total of 9 g of anion exchange resin was added. The final pH was 10.8. The resin was removed by filtration and the filtrate was concentrated to an oil by rotary evaporation at 60° C.; no solids formed. The starting material, final filtrate and all intermediate samples were assayed by HPLC and ion chromatography for chloride.
The diamond (solid line) is pH and square (dashed line) is S-[2-[(1-Iminoethyl)amino]ethyl]-2-methyl-L-cysteine (percent initial, by ion chromatography). […] The diamond (solid line) is pH and triangle (broken line) is chloride (by ion chromatography).
These curves are not true titration curves since samples were withdrawn during the progress of the reaction, and since true equilibrium was not attained before the increments of resin were added. Nevertheless, the graphs of FIG. 2 and FIG. 3 illustrate the expected trends. As resin is added to the S-[2-[(1-Iminoethyl)amino]ethyl]-2-methyl-L-cysteine solution the pH rises with change in slope around pH's of 2, 9 and 11. The pH's of slower rise are representative of the pK's of the carboxylic acid, amine and amidine functional groups, respectively. Above a pH of 10, the S-[2-[(1-Iminoethyl)amino]ethyl]-2-methyl-L-cysteine concentration in solution decreases. At this point, the S-[2-[(1-Iminoethyl)amino]ethyl]-2-methyl-L-cysteine is gaining a net negative charge and is binding to the resin. […] The final chloride content is approximately 0.04 mol equivalents.

[4] = Stability of free zwitterion at different pH by ion pairing gradient HPLC (Example 6); settings: for Purity At The Time Of Titration: a few hours after preparation; for Purity One Week After Titration: after 1 week
Protocol: Amberlite IRA400 (Cl) resin was rinsed with 3M HCl, water, and then 3M NaOH. Aliquots were 100 ml per 10 g of resin. This procedure was repeated 3 times in order to clean the resin and in order to generate the OH form. A final rinse with water was carried out until the conductivity of the eluting water was 2 μS. The resin was then used to titrate 40 ml of a 50 mg/ml solution of S-[2-[(1-Iminoethyl)amino]ethyl]-2-methyl-L-cysteine di-hydrochloride. The concentration is expressed in terms of zwitterion equivalents. Aliquots were taken throughout the titration, filtered and analyzed by HPLC. Subsamples of the aliquots were saved for a second HPLC analysis 1 week after the titration was performed in order to assess the stability of the samples. Additional aliquots were taken for Cl analysis using an ion selective electrode. The pH was also monitored throughout the titration.
HPLC analyses were performed using an ion pairing gradient method.
Pump A: 20 mM KH2PO4, 10 mM Pentane sulfonic acid, adjusted to pH=3 with phosphoric acid
Gradient: 0% B at 0 min, 26% B at 15 min, 0% B at 15.1 min

[5] = HPLC stability of anion exchange titrated samples (Example 5); settings: product at pH of 11 within a few hours
Protocol: 3.3 g of a sample containing about 1 g of S-[2-[(1-Iminoethyl)amino]ethyl]-2-methyl-L-cysteine di-hydrochloride was diluted to 20 g. Aliquots of prewashed Amberlite IRA400 (OH) resin was added to the solution and samples were periodically withdrawn through a syringe filter. Intermediate resin filtrations were performed at pH of 7.1 and 8.8 by filtering off the resin in solution and then continuing to add fresh resin to the filtrate. This was done to drive the chloride removal equilibrium and minimize product adsorption. After the final pH of 11.2 was attained, the resin was filtered off. The starting materials, intermediate samples and final filtrate were analyzed.
The resulting samples were analyzed by HPLC. No difference was seen between the HPLC traces of the starting material and product at pH of 11 within a few hours.

[6] = Moisture sorption of Form I; settings: 90% R.H. and 25° C.
Description: FIG. 12 is a plot of a moisture sorption study of S-[2-[(1-Iminoethyl)amino]ethyl]-2-methyl-L-cysteine maleate.

CC(=N)NCCSC[C@](C)(N)C(=O)O.O=C(O)/C=C\C(=O)O [S-[2-[(1-Iminoethyl)amino]ethyl]-2-methyl-L-cysteine maleate]
Solubility in DMF/water/acetonitrile ([1]; 5/5/90 D/W/A, 5° C., 4 Days): 1.15 Wt %
Solubility in DMF/water/acetonitrile ([1]; 5/5/90 D/W/A, 5° C., 19 Days): 1.16 Wt %
Solubility in DMF/water/acetonitrile ([1]; 6.3/3.4/90 D/W/A, 5° C., 4 Days): 1.35 Wt %
Solubility in DMF/water/acetonitrile ([1]; 6.3/3.4/90 D/W/A, 5° C., 19 Days): 1.02 Wt %
Solubility in DMF/water/acetonitrile ([1]; 6.3/3.4/90 D/W/A, 25° C., 4 Days): 2.13 Wt %
Solubility in DMF/water/acetonitrile ([1]; 6.3/3.4/90 D/W/A, 25° C., 19 Days): 1.74 Wt %
Solubility in DMF/water/acetonitrile ([1]; 7.5/2.5/90 D/W/A, 5° C., 4 Days): 4.19 Wt %
Solubility in DMF/water/acetonitrile ([1]; 7.5/2.5/90 D/W/A, 5° C., 19 Days): 2.12 Wt %
Solubility in DMF/water/acetonitrile ([1]; 7.5/2.5/90 D/W/A, 25° C., 4 Days): 2.53 Wt %
Solubility in DMF/water/acetonitrile ([1]; 7.5/2.5/90 D/W/A, 25° C., 19 Days): 2.45 Wt %
Solubility in DMF/water/acetonitrile ([1]; 15/15/70 D/W/A, 5° C., 4 Days): 3.31 Wt %
Solubility in DMF/water/acetonitrile ([1]; 15/15/70 D/W/A, 5° C., 19 Days): 5.71 Wt %
Solubility in DMF/water/acetonitrile ([1]; 20/10/70 D/W/A, 5° C., 4 Days): 2.91 Wt %
Solubility in DMF/water/acetonitrile ([1]; 20/10/70 D/W/A, 5° C., 19 Days): 1.75 Wt %
Solubility in DMF/water/acetonitrile ([1]; 20/10/70 D/W/A, 25° C., 4 Days): 3.46 Wt %
Solubility in DMF/water/acetonitrile ([1]; 20/10/70 D/W/A, 25° C., 19 Days): 2.33 Wt %
Solubility in DMF/water/acetonitrile ([1]; 22.5/7.5/70 D/W/A, 5° C., 4 Days): 3.06 Wt %
Solubility in DMF/water/acetonitrile ([1]; 22.5/7.5/70 D/W/A, 5° C., 19 Days): 2.75 Wt %
Solubility in DMF/water/acetonitrile ([1]; 22.5/7.5/70 D/W/A, 25° C., 4 Days): 4.90 Wt %
Solubility in DMF/water/acetonitrile ([1]; 22.5/7.5/70 D/W/A, 25° C., 19 Days): 7.38 Wt %

CC(=N)NCCSC[C@](C)(N)C(=O)O [S-[2-[(1-Iminoethyl)amino]ethyl]-2-methyl-L-cysteine]
pKa [2]: ~8.4
pH of slower rise representative of the pK ([3]; amidine group): ~11
pH of slower rise representative of the pK ([3]; amine group): ~9
pH of slower rise representative of the pK ([3]; carboxylic acid group): ~2
Degradation by HPLC assay of the samples ([3]; samples titrated up to final pH 10.8, Example 3): no degradation
Purity At The Time Of Titration ([4]; Sample pH 2.13): 98.6 Peak Area %
Purity One Week After Titration ([4]; Sample pH 2.13): 98.4 Peak Area %
Purity At The Time Of Titration ([4]; Sample pH 3.83): 98.7 Peak Area %
Purity One Week After Titration ([4]; Sample pH 3.83): 98.1 Peak Area %
Purity At The Time Of Titration ([4]; Sample pH 8.48): 98.5 Peak Area %
Purity One Week After Titration ([4]; Sample pH 8.48): 97.4 Peak Area %
Purity At The Time Of Titration ([4]; Sample pH 9.37): 98.5 Peak Area %
Purity One Week After Titration ([4]; Sample pH 9.37): 97.2 Peak Area %
Purity At The Time Of Titration ([4]; Sample pH 9.78): 98.3 Peak Area %
Purity One Week After Titration ([4]; Sample pH 9.78): 97.2 Peak Area %
Purity At The Time Of Titration ([4]; Sample pH 10.27): 98.3 Peak Area %
Purity One Week After Titration ([4]; Sample pH 10.27): 96.4 Peak Area %
Purity At The Time Of Titration ([4]; Sample pH 10.83): 96.6 Peak Area %
Purity One Week After Titration ([4]; Sample pH 10.83): 94.7 Peak Area %
Purity At The Time Of Titration ([4]; Sample pH 11.6): 98.3 Peak Area %
Purity One Week After Titration ([4]; Sample pH 11.6): 92.4 Peak Area %
Purity At The Time Of Titration ([4]; Sample pH 11.75): 97.9 Peak Area %
Purity One Week After Titration ([4]; Sample pH 11.75): 89.2 Peak Area %
Purity At The Time Of Titration ([4]; Sample pH .94): 98.0 Peak Area %
Purity One Week After Titration ([4]; Sample pH .94): 98.3 Peak Area %
Difference between HPLC traces of starting material and product [5]: No difference

S-[2-[(1-Iminoethyl)amino]ethyl]-2-methyl-L-cysteine maleate crystalline salt Form I
Water absorbed by weight [6]: less than one percent
